In one data set the test system is Russian thistle (SASKR). The data set is described as follows: Postemergence greenhouse trial, % visual injury on Russian thistle. It counts as in vivo, Salsola kali. The settings on record: SASKR.
A further data set concerns common poppy (PAPRH). As to the kind of experiment: Postemergence greenhouse trial, % visual injury on common poppy. The following applies: PAPRH; for pest or weed control at 4.375 g/ha / pest or weed control at 8.75 g/ha / pest or weed control at 17.5 g/ha / pest or weed control at 35 g/ha / pest or weed control at 70 g/ha: Papaver rhoeas, post-emergence, applied alone, read-out: % visual injury, Ob; for % visual injury, Ob: CQC-m 0 g/ha. It counts as in vivo, Papaver rhoeas. As for the experimental part: (§1) Seeds of the desired test plant species were planted in Sun Gro MetroMix® 306 planting mixture, which typically has a pH of 6.0 to 6.8 and an organic matter content of about 30 percent, in plastic pots with a surface area of 103.2 square centimeters (cm^2). When required to ensure good germination and healthy plants, a fungicide treatment and/or other chemical or physical treatment was applied. The plants were grown for 7-36 days (d) in a greenhouse with an approximate 14-hour (h) photoperiod which was maintained at about 23° C. during the day and 22° C. during the night. Nutrients and water were added on a regular basis and supplemental lighting was provided with overhead metal halide 1000-Watt lamps as necessary. The plants were employed for testing when they reached the second or third true leaf stage.
(§2) Weighed amounts of technical material were dissolved in a volume of 97:3 volume per volume (v/v) acetone/dimethyl sulfoxide (DMSO) to stock solutions. […] The concentrated stock solutions were diluted with an aqueous mixture of 1.5% v/v of Agri-dex crop oil concentrate to provide the appropriate application rates. Compound requirements are based upon a 12 milliliter (mL) application volume at a rate of 187 liters per hectare (L/ha). Stocks solutions of the safeners were prepared following the same procedure. Spray solutions of the safeners and experimental compound mixtures were prepared by adding the stock solutions to the appropriate amount of dilution solution to form a 12 mL spray solution in two-way combinations. Formulated compounds were applied to the plant material with an overhead Mandel track sprayer equipped with 8002E nozzles calibrated to deliver 187 L/ha over an application area of 0.503 square meters (m^2) at a spray height of 18 inches (43 centimeters (cm)) above average plant canopy. Control plants were sprayed in the same manner with the solvent blank. All herbicide application (component a) rates are in g ae/ha and all safener (component b) rates are in g ai/ha.
(§3) The treated plants and control plants were placed in a greenhouse as described above and watered by sub-irrigation to prevent wash-off of the test compounds. After 20-22 d, the condition of the test plants as compared with that of the control plants was determined visually and scored on a scale of 0 to 100 percent where 0 corresponds to no injury and 100 corresponds to complete kill. […] Colby's equation was used to determine the herbicidal effects expected from the mixtures. […]

The test system of a further data set is spring wheat (TRZAS). As to the kind of experiment: Postemergence greenhouse trial, % visual injury on spring wheat. It counts as in vivo, Triticum aestivum. The following applies: TRZAS. Summed up: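 Postemergence greenhouse spray (187 L/ha, 1.5% v/v Agri-dex in water, acetone/DMSO stocks) on plants at second–third true leaf stage, ~23/22 °C, 14 h photoperiod; herbicides in g ae/ha, safener cloquintocet-mexyl in g ai/ha. Visual injury 0–100% versus solvent-blank controls after 20–22 d; Colby's equation gave expected mixture effects.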

For a further data set, the system named is wild mustard (SINAR). The data set is described as follows: Postemergence greenhouse trial, % visual injury on wild mustard. Format: in vivo, Sinapis arvensis. The following applies: SINAR; for pest or weed control at 4.375 g/ha / pest or weed control at 8.75 g/ha / pest or weed control at 17.5 g/ha / pest or weed control at 35 g/ha / pest or weed control at 70 g/ha: Brassica, post-emergence, applied alone, read-out: % visual injury, Ob; for % visual injury, Ob: CQC-m 0 g/ha. The protocol:
as §1, §2, §3

Another data set concerns lambsquarters (CHEAL). As to the kind of experiment: Postemergence greenhouse trial, % visual injury on lambsquarters. It counts as in vivo, Chenopodium album. The settings on record: CHEAL. In outline:
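Plants at second or third true leaf stage, greenhouse-grown (14 h photoperiod, ~23/22° C.), sprayed postemergence with compounds alone or with safener cloquintocet-mexyl in 1.5% v/v Agri-dex crop oil at 187 L/ha. Visual injury scored 0–100% versus solvent-blank controls after 20-22 d; expected mixture effects by Colby's equation.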

The mark [1] stands for this setting: compound 8 4.380 + CQC-m 0 g/ha.
The mark [2] stands for this setting: compound 4.375 g/ha, CQC-m 0 g/ha.
Setting [3] is: compound 8.75 g/ha, CQC-m 0 g/ha.
Setting [4] is: compound 17.5 g/ha, CQC-m 0 g/ha.

For the compound `COC(=O)c1nc(-c2ccc3cc[nH]c3c2F)c(F)c(N)c1Cl` [compound 8], the “% visual injury, observed (Ob)” value in the data set with Russian thistle (SASKR) (setting [1]) was determined as 61%; in the data set on Russian thistle (SASKR) (compound 8 8.75 + CQC-m 0 g/ha), 69%; in the data set with Russian thistle (SASKR) (compound 8 17.5 + CQC-m 0 g/ha), 83%; with Russian thistle (SASKR) (compound 8 35 + CQC-m 0 g/ha) it was 85%; in the data set on Russian thistle (SASKR) (compound 8 70 + CQC-m 0 g/ha), 90%; in the data set with common poppy (PAPRH) (setting [1]) it was 97%. For the same compound, the “% visual injury, observed (Ob)” value was 99% in the data set on common poppy (PAPRH) (compound 8 8.75 + CQC-m 0 g/ha); 100% with common poppy (PAPRH) (compound 8 17.5 + CQC-m 0 g/ha); 100% in the data set with common poppy (PAPRH) (compound 8 35 + CQC-m 0 g/ha); 100% in the data set with common poppy (PAPRH) (compound 8 70 + CQC-m 0 g/ha); 7% in the data set with spring wheat (TRZAS) (setting [1]); 11% in the data set on spring wheat (TRZAS) (compound 8 8.75 + CQC-m 0 g/ha). Moreover, the “% visual injury, observed (Ob)” value was 35% in the data set with spring wheat (TRZAS) (compound 8 17.5 + CQC-m 0 g/ha); 48% in the data set with spring wheat (TRZAS) (compound 8 35 + CQC-m 0 g/ha); 60% in the data set on spring wheat (TRZAS) (compound 8 70 + CQC-m 0 g/ha); 76% with wild mustard (SINAR) (setting [1]); 82% with wild mustard (SINAR) (compound 8 8.75 + CQC-m 0 g/ha); 96% with wild mustard (SINAR) (compound 8 17.5 + CQC-m 0 g/ha). Moreover, the “% visual injury, observed (Ob)” value came to 99% in the data set with wild mustard (SINAR) (compound 8 35 + CQC-m 0 g/ha); 98% with wild mustard (SINAR) (compound 8 70 + CQC-m 0 g/ha); 86% in the data set on lambsquarters (CHEAL) (setting [1]); 92% in the data set with lambsquarters (CHEAL) (compound 8 8.75 + CQC-m 0 g/ha); 99% in the data set on lambsquarters (CHEAL) (compound 8 17.5 + CQC-m 0 g/ha); 100% in the data set with lambsquarters (CHEAL) (compound 8 35 + CQC-m 0 g/ha). Also, the “% visual injury, observed (Ob)” value in the data set with lambsquarters (CHEAL) (compound 8 70 + CQC-m 0 g/ha) amounted to 100%.

For `Nc1c(F)c(-c2ccc3scnc3c2)nc(C(=O)O)c1Cl` [compound 17], the pest or weed control at 4.375 g/ha with common poppy (PAPRH) turned out to be 80%; with wild mustard (SINAR), 93%; in the data set with lambsquarters (CHEAL) (Chenopodium album, post-emergence, 4.375 g/ha, applied alone, read-out: % visual injury, Ob), 40%. In addition, the pest or weed control at 8.75 g/ha came out at 85% in the data set on common poppy (PAPRH); 93% with wild mustard (SINAR); 60% in the data set with lambsquarters (CHEAL) (Chenopodium album, post-emergence, 8.75 g/ha, applied alone, read-out: % visual injury, Ob). In addition, the pest or weed control at 17.5 g/ha in the data set with common poppy (PAPRH) is 85%; in the data set with wild mustard (SINAR) it was 95%; with lambsquarters (CHEAL) (Chenopodium album, post-emergence, 17.5 g/ha, applied alone, read-out: % visual injury, Ob), 70%. Also, the pest or weed control at 35 g/ha in the data set with common poppy (PAPRH) amounted to 95%; in the data set on wild mustard (SINAR), 95%; in the data set on lambsquarters (CHEAL) (Chenopodium album, post-emergence, 35 g/ha, applied alone, read-out: % visual injury, Ob), 80%. Also, the pest or weed control at 70 g/ha stood at 100% in the data set on common poppy (PAPRH); 100% in the data set with wild mustard (SINAR); 85% in the data set on lambsquarters (CHEAL) (Chenopodium album, post-emergence, 70 g/ha, applied alone, read-out: % visual injury, Ob). The “% visual injury, Ob” value in the data set with spring wheat (TRZAS) (4.375 g/ha, applied alone) turned out to be 0%; with spring wheat (TRZAS) (8.75 g/ha, applied alone), 15%; in the data set with spring wheat (TRZAS) (17.5 g/ha, applied alone) it was 30%; in the data set on spring wheat (TRZAS) (35 g/ha, applied alone), 40%; in the data set with spring wheat (TRZAS) (70 g/ha, applied alone), 45%.

Regarding `Nc1c(F)c(-c2ccc3ccoc3c2)nc(C(=O)O)c1Cl` [compound 20], the “% visual injury, Ob” value turned out to be 20% in the data set on Russian thistle (SASKR) (4.375 g/ha, applied alone); 40% in the data set on Russian thistle (SASKR) (8.75 g/ha, applied alone); 60% in the data set on Russian thistle (SASKR) (17.5 g/ha, applied alone); 80% in the data set with Russian thistle (SASKR) (35 g/ha, applied alone); 80% in the data set on Russian thistle (SASKR) (70 g/ha, applied alone); 0% with spring wheat (TRZAS) (4.375 g/ha, applied alone). Moreover, the “% visual injury, Ob” value in the data set on spring wheat (TRZAS) (8.75 g/ha, applied alone) came out at 0%; in the data set with spring wheat (TRZAS) (17.5 g/ha, applied alone) it was 0%; in the data set on spring wheat (TRZAS) (35 g/ha, applied alone), 10%; in the data set with spring wheat (TRZAS) (70 g/ha, applied alone) it was 20%. Also, the pest or weed control at 4.375 g/ha with common poppy (PAPRH) is 85%; in the data set with wild mustard (SINAR) it was 60%. Besides, the pest or weed control at 8.75 g/ha in the data set with common poppy (PAPRH) turned out to be 85%; in the data set on wild mustard (SINAR) it was 60%. Further, the pest or weed control at 17.5 g/ha turned out to be 95% in the data set on common poppy (PAPRH) and 83% in the data set with wild mustard (SINAR). For the same compound, the pest or weed control at 35 g/ha with common poppy (PAPRH) amounted to 100%; in the data set on wild mustard (SINAR) it was 80%. In addition, the pest or weed control at 70 g/ha in the data set on common poppy (PAPRH) came out at 95%; in the data set with wild mustard (SINAR) it was 93%.

Turning to `Nc1cc(-c2ccc3cc[nH]c3c2F)nc(C(=O)O)c1Cl` [compound 15], the “% visual injury, Ob” value in the data set on Russian thistle (SASKR) (setting [2]) came out at 10%; with Russian thistle (SASKR) (setting [3]), 10%; in the data set on Russian thistle (SASKR) (setting [4]), 10%; with Russian thistle (SASKR) (compound 35 g/ha, CQC-m 0 g/ha), 60%; with Russian thistle (SASKR) (compound 70 g/ha, CQC-m 0 g/ha), 70%; in the data set on common poppy (PAPRH) (compound 4.375 g/ha), 90%. Further, the “% visual injury, Ob” value with common poppy (PAPRH) (compound 8.75 g/ha) came to 100%; with common poppy (PAPRH) (compound 17.5 g/ha) it was 100%; with common poppy (PAPRH) (compound 35 g/ha), 100%; with spring wheat (TRZAS) (setting [2]), 0%; in the data set with spring wheat (TRZAS) (setting [3]), 10%; in the data set on spring wheat (TRZAS) (setting [4]), 15%. For the same compound, the “% visual injury, Ob” value in the data set with spring wheat (TRZAS) (compound 35 g/ha, CQC-m 0 g/ha) was found to be 20%; with spring wheat (TRZAS) (compound 70 g/ha, CQC-m 0 g/ha), 25%; with wild mustard (SINAR) (compound 4.375 g/ha) it was 93%; with wild mustard (SINAR) (compound 8.75 g/ha), 100%; in the data set with wild mustard (SINAR) (compound 17.5 g/ha) it was 100%; in the data set on wild mustard (SINAR) (compound 35 g/ha) it was 100%. Also, the “% visual injury, Ob” value in the data set with wild mustard (SINAR) (compound 70 g/ha) is on record as 100%.

These data come from US9763445B2, “Safened herbicidal compositions comprising a pyridine carboxylic acid herbicide” (Dow AgroSciences, LLC, priority 2014, dated 2017).
